The data set in a line: recombinant UMI read abundance after kanamycin selection (control-corrected) (log10(CPM+1)); higher = more efficient recombination; extreme values may be limits of the assay; sequences stand for … in AGTGCAGAGAAAATCGGCCAGTTTTCTCTGCCTGCAGTCCGCATGCCGTGGGACCCCTTGGGTTCTAACCTGTTGCCTAGATTTATGCAGCGGACTGCCTTTCTCCCAAAGTGATAAACCGG…AGGTTGGTTTCACT; site = the 11-nt donor. In short, it runs like this: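 For the IS621 bridge recombinase, a pooled Escherichia coli screen tested donor and donor-binding-loop pairs. Cells received the pair library together with a target plasmid encoding a fixed target and T7-inducible recombinase, then went onto IPTG (0.07 mM) plus kanamycin or unselected plates in duplicate. After PCR across the donor–target junction and sequencing, recombinant UMI counts were normalized to CPM, averaged, and scaled by control-derived factors. Each value is given as log10(CPM+1).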

68 sequences from the supplement of paper PMC11208160 can be followed below.
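Note: IS621 bridge recombinase in Escherichia coli cells against a fixed T5 target plasmid.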

Consider “GGTGTTCCATGGACCGGTTTTCCCGGTAATCCGTATTTGGT (site GGTGTTCCTAC)”, for which the “recombinant UMI read abundance (log10)” value came out at 0.0141.

“GGTGTTCCATGGACCGGTTTTCCCGGTAATCCGTATTTGGT (site GTTGTTCCTAC)”: the “recombinant UMI read abundance (log10)” value came out at 0.

On to “GGTTACCCATGGACCGGTTTTCCCGGTAATCCGTATTTGTC (site GGTTACCCTGA)”, for which the “recombinant UMI read abundance (log10)” value was 0.664.

“GGTTCCCCATGGACCGGTTTTCCCGGTAATCCGTATTTGTA (site AGTTCCCCTTA)”: the “recombinant UMI read abundance (log10)” value worked out at 0.0122.

For the sequence “GGTTCCCCATGGACCGGTTTTCCCGGTAATCCGTATTTGTA (site CGTTCCCCTTA)”, the “recombinant UMI read abundance (log10)” value is 0.00861.

For the sequence “GGTTCCCCATGGACCGGTTTTCCCGGTAATCCGTATTTGTA (site GGTTCCCCTTA)”, the “recombinant UMI read abundance (log10)” value was found to be 0.0107.

As for “GGTTCCCCATGGACCGGTTTTCCCGGTAATCCGTATTTGTA (site TGTTCCCCTTA)”, the “recombinant UMI read abundance (log10)” value was determined as 0.0103.

“GGTTCCGCATGGACCGGTTTTCCCGGTAATCCGTATTTGAA (site GGTTCCGCTTT)”: the “recombinant UMI read abundance (log10)” value is 0.

“GGTTCTACATGGACCGGTTTTCCCGGTAATCCGTATTTGAG (site GGTTCTACTCT)”: the “recombinant UMI read abundance (log10)” value came to 0.316.

For the sequence “GGTTGGTCATGGACCGGTTTTCCCGGTAATCCGTATTTGCA (site GGTTGGTCTTG)”, the “recombinant UMI read abundance (log10)” value was determined as 1.59.

Take “GGTTTGTCATGGACCGGTTTTCCCGGTAATCCGTATTTGTG (site GGTTTGTCTCA)”: the “recombinant UMI read abundance (log10)” value is 1.21.

Regarding “GTAAAATCATGGACCGGTTTTCCCGGTAATCCGTATTTGCA (site GTAAAATCTTG)”, the “recombinant UMI read abundance (log10)” value amounted to 1.81.

Take “GTAAAGACATGGACCGGTTTTCCCGGTAATCCGTATTTGGG (site GTAAAGACTCC)”: the “recombinant UMI read abundance (log10)” value worked out at 0.889.

Regarding “GTAACGCCATGGACCGGTTTTCCCGGTAATCCGTATTTGTC (site GTAACGCCTGA)”, the “recombinant UMI read abundance (log10)” value was 0.

As to “GTAAGTTCATGGACCGGTTTTCCCGGTAATCCGTATTTGTC (site GTAAGTTCTGA)”, the “recombinant UMI read abundance (log10)” value worked out at 2.1.

For “GTACAAGCATGGACCGGTTTTCCCGGTAATCCGTATTTGCA (site GTACAAGCTTG)”, the “recombinant UMI read abundance (log10)” value came to 2.69.

In the case of “GTACCCACATGGACCGGTTTTCCCGGTAATCCGTATTTGTC (site GTACCCACTGA)”, the “recombinant UMI read abundance (log10)” value amounted to 2.64.

As to “GTACCTTCATGGACCGGTTTTCCCGGTAATCCGTATTTGAC (site GTACCTTCTGT)”, the “recombinant UMI read abundance (log10)” value is 2.06.

As to “GTACGCACATGGACCGGTTTTCCCGGTAATCCGTATTTGTA (site GTAAGCACTTA)”, the “recombinant UMI read abundance (log10)” value was 0.0204.

As to “GTACGCACATGGACCGGTTTTCCCGGTAATCCGTATTTGTA (site GTACGCACTTA)”, the “recombinant UMI read abundance (log10)” value was found to be 2.17.

Take “GTACGCACATGGACCGGTTTTCCCGGTAATCCGTATTTGTA (site GTAGGCACTTA)”: the “recombinant UMI read abundance (log10)” value came to 0.0167.

As for “GTACGCACATGGACCGGTTTTCCCGGTAATCCGTATTTGTA (site GTATGCACTTA)”, the “recombinant UMI read abundance (log10)” value stood at 0.266.

“GTACTTCCATGGACCGGTTTTCCCGGTAATCCGTATTTGCT (site GTACTTCCTAG)”: the “recombinant UMI read abundance (log10)” value turned out to be 1.14.

Consider “GTAGCCGCATGGACCGGTTTTCCCGGTAATCCGTATTTGCG (site GTAGACGCTCG)”, for which the “recombinant UMI read abundance (log10)” value came out at 0.446.

For “GTAGCCGCATGGACCGGTTTTCCCGGTAATCCGTATTTGCG (site GTAGCCGCTCG)”, the “recombinant UMI read abundance (log10)” value was 2.08.

For “GTAGCCGCATGGACCGGTTTTCCCGGTAATCCGTATTTGCG (site GTAGGCGCTCG)”, the “recombinant UMI read abundance (log10)” value worked out at 0.0284.

As to “GTAGCCGCATGGACCGGTTTTCCCGGTAATCCGTATTTGCG (site GTAGTCGCTCG)”, the “recombinant UMI read abundance (log10)” value turned out to be 0.781.

“GTAGCCTCATGGACCGGTTTTCCCGGTAATCCGTATTTGTT (site GTAGCCTCTAA)”: the “recombinant UMI read abundance (log10)” value amounted to 2.42.

For the sequence “GTAGCGACATGGACCGGTTTTCCCGGTAATCCGTATTTGTC (site GTAGCGACTGA)”, the “recombinant UMI read abundance (log10)” value worked out at 2.92.

Consider “GTAGCTACATGGACCGGTTTTCCCGGTAATCCGTATTTGAC (site GTAGATACTGT)”, for which the “recombinant UMI read abundance (log10)” value is 1.02.

On to “GTAGCTACATGGACCGGTTTTCCCGGTAATCCGTATTTGAC (site GTAGCTACTGT)”, for which the “recombinant UMI read abundance (log10)” value was 2.4.

On to “GTAGCTACATGGACCGGTTTTCCCGGTAATCCGTATTTGAC (site GTAGGTACTGT)”, for which the “recombinant UMI read abundance (log10)” value is 0.

With “GTAGCTACATGGACCGGTTTTCCCGGTAATCCGTATTTGAC (site GTAGTTACTGT)”, the “recombinant UMI read abundance (log10)” value worked out at 1.7.

With “GTAGGCACATGGACCGGTTTTCCCGGTAATCCGTATTTGTA (site GTAAGCACTTA)”, the “recombinant UMI read abundance (log10)” value is 1.08.

In the case of “GTAGGCACATGGACCGGTTTTCCCGGTAATCCGTATTTGTA (site GTACGCACTTA)”, the “recombinant UMI read abundance (log10)” value amounted to 0.279.

In the case of “GTAGGCACATGGACCGGTTTTCCCGGTAATCCGTATTTGTA (site GTAGGCACTTA)”, the “recombinant UMI read abundance (log10)” value came out at 1.29.

As for “GTAGGCACATGGACCGGTTTTCCCGGTAATCCGTATTTGTA (site GTATGCACTTA)”, the “recombinant UMI read abundance (log10)” value was found to be 0.019.

“GTAGGCTCATGGACCGGTTTTCCCGGTAATCCGTATTTGCA (site GTAGGCTCTTG)”: the “recombinant UMI read abundance (log10)” value stood at 2.94.

As for “GTAGGTACATGGACCGGTTTTCCCGGTAATCCGTATTTGAA (site GTAGGTACTAT)”, the “recombinant UMI read abundance (log10)” value amounted to 0.

Take “GTAGGTACATGGACCGGTTTTCCCGGTAATCCGTATTTGAA (site GTAGGTACTCT)”: the “recombinant UMI read abundance (log10)” value is 0.518.

“GTAGGTACATGGACCGGTTTTCCCGGTAATCCGTATTTGAA (site GTAGGTACTGT)”: the “recombinant UMI read abundance (log10)” value was found to be 0.479.

Consider “GTAGGTACATGGACCGGTTTTCCCGGTAATCCGTATTTGAA (site GTAGGTACTTT)”, for which the “recombinant UMI read abundance (log10)” value was found to be 1.75.

In the case of “GTAGGTACATGGACCGGTTTTCCCGGTAATCCGTATTTGCC (site GTAGGTACTGA)”, the “recombinant UMI read abundance (log10)” value was 0.73.

“GTAGGTACATGGACCGGTTTTCCCGGTAATCCGTATTTGCC (site GTAGGTACTGC)”: the “recombinant UMI read abundance (log10)” value turned out to be 0.00606.

As to “GTAGGTACATGGACCGGTTTTCCCGGTAATCCGTATTTGCC (site GTAGGTACTGG)”, the “recombinant UMI read abundance (log10)” value is 0.956.

Consider “GTAGGTACATGGACCGGTTTTCCCGGTAATCCGTATTTGCC (site GTAGGTACTGT)”, for which the “recombinant UMI read abundance (log10)” value came to 0.441.

Turning to “GTAGGTGCATGGACCGGTTTTCCCGGTAATCCGTATTTGAC (site GTAGGTACTGT)”, the “recombinant UMI read abundance (log10)” value was determined as 2.25.

With “GTAGGTGCATGGACCGGTTTTCCCGGTAATCCGTATTTGAC (site GTAGGTCCTGT)”, the “recombinant UMI read abundance (log10)” value was 0.618.

Take “GTAGGTGCATGGACCGGTTTTCCCGGTAATCCGTATTTGAC (site GTAGGTGCTGT)”: the “recombinant UMI read abundance (log10)” value is 2.74.

“GTAGGTGCATGGACCGGTTTTCCCGGTAATCCGTATTTGAC (site GTAGGTTCTGT)”: the “recombinant UMI read abundance (log10)” value stood at 1.1.

Regarding “GTAGTCGCATGGACCGGTTTTCCCGGTAATCCGTATTTGAG (site GTAGTCGCTCA)”, the “recombinant UMI read abundance (log10)” value is 0.017.

As to “GTAGTCGCATGGACCGGTTTTCCCGGTAATCCGTATTTGAG (site GTAGTCGCTCC)”, the “recombinant UMI read abundance (log10)” value is 0.924.

As to “GTAGTCGCATGGACCGGTTTTCCCGGTAATCCGTATTTGAG (site GTAGTCGCTCG)”, the “recombinant UMI read abundance (log10)” value came out at 0.73.

For the sequence “GTAGTCGCATGGACCGGTTTTCCCGGTAATCCGTATTTGAG (site GTAGTCGCTCT)”, the “recombinant UMI read abundance (log10)” value worked out at 1.5.

As to “GTAGTCGCATGGACCGGTTTTCCCGGTAATCCGTATTTGCA (site GTAGTCGCTAG)”, the “recombinant UMI read abundance (log10)” value came to 0.762.

On to “GTAGTCGCATGGACCGGTTTTCCCGGTAATCCGTATTTGCA (site GTAGTCGCTCG)”, for which the “recombinant UMI read abundance (log10)” value worked out at 1.85.

In the case of “GTAGTCGCATGGACCGGTTTTCCCGGTAATCCGTATTTGCA (site GTAGTCGCTGG)”, the “recombinant UMI read abundance (log10)” value stood at 0.873.

Consider “GTAGTCGCATGGACCGGTTTTCCCGGTAATCCGTATTTGCA (site GTAGTCGCTTG)”, for which the “recombinant UMI read abundance (log10)” value worked out at 2.68.

For “GTAGTCGCATGGACCGGTTTTCCCGGTAATCCGTATTTGCC (site GTAGTCGCTAG)”, the “recombinant UMI read abundance (log10)” value was 1.64.

In the case of “GTAGTCGCATGGACCGGTTTTCCCGGTAATCCGTATTTGCC (site GTAGTCGCTCG)”, the “recombinant UMI read abundance (log10)” value was 0.819.

For the sequence “GTAGTCGCATGGACCGGTTTTCCCGGTAATCCGTATTTGCC (site GTAGTCGCTGG)”, the “recombinant UMI read abundance (log10)” value was 2.93.

In the case of “GTAGTCGCATGGACCGGTTTTCCCGGTAATCCGTATTTGCC (site GTAGTCGCTTG)”, the “recombinant UMI read abundance (log10)” value turned out to be 2.39.

“GTAGTCGCATGGACCGGTTTTCCCGGTAATCCGTATTTGTG (site GTAGTCGCTCA)”: the “recombinant UMI read abundance (log10)” value was 2.18.

Consider “GTAGTCGCATGGACCGGTTTTCCCGGTAATCCGTATTTGTG (site GTAGTCGCTCC)”, for which the “recombinant UMI read abundance (log10)” value came out at 0.438.

For “GTAGTCGCATGGACCGGTTTTCCCGGTAATCCGTATTTGTG (site GTAGTCGCTCG)”, the “recombinant UMI read abundance (log10)” value turned out to be 1.42.

“GTAGTCGCATGGACCGGTTTTCCCGGTAATCCGTATTTGTG (site GTAGTCGCTCT)”: the “recombinant UMI read abundance (log10)” value is 1.05.

As for “GTAGTCTCATGGACCGGTTTTCCCGGTAATCCGTATTTGCG (site GTAGTCACTCG)”, the “recombinant UMI read abundance (log10)” value amounted to 1.31.

As for “GTAGTCTCATGGACCGGTTTTCCCGGTAATCCGTATTTGCG (site GTAGTCCCTCG)”, the “recombinant UMI read abundance (log10)” value amounted to 1.12.
